Reference: patent US10233173B2, “Substituted 1,2,3-triazoles as NR2B-selective NMDA modulators” (JANSSEN PHARMACEUTICA NV, priority 2016, dated 2019)

molecular target: human GluN1/GluN2B NMDA receptors (Homo sapiens, UniProt Q05586+Q13224); assay: Cell-based calcium flux (FLIPR) assay on cloned human NR1/NR2B ion channels expressed in mammalian cells; conditions: standard assay; human GluN1/GluN2B, calcium flux (FLIPR), glutamate ~EC80
Outline: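 Calcium influx followed by FLIPR fluorescence after 5 min compound exposure and a further 5 min co-agonist challenge: 10 μM glycine with glutamate at ~EC80 (standard) or EC40 (HTS).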

Chain of human GluN1/GluN2B NMDA receptors (Q13224 27-1484, other chains not shown): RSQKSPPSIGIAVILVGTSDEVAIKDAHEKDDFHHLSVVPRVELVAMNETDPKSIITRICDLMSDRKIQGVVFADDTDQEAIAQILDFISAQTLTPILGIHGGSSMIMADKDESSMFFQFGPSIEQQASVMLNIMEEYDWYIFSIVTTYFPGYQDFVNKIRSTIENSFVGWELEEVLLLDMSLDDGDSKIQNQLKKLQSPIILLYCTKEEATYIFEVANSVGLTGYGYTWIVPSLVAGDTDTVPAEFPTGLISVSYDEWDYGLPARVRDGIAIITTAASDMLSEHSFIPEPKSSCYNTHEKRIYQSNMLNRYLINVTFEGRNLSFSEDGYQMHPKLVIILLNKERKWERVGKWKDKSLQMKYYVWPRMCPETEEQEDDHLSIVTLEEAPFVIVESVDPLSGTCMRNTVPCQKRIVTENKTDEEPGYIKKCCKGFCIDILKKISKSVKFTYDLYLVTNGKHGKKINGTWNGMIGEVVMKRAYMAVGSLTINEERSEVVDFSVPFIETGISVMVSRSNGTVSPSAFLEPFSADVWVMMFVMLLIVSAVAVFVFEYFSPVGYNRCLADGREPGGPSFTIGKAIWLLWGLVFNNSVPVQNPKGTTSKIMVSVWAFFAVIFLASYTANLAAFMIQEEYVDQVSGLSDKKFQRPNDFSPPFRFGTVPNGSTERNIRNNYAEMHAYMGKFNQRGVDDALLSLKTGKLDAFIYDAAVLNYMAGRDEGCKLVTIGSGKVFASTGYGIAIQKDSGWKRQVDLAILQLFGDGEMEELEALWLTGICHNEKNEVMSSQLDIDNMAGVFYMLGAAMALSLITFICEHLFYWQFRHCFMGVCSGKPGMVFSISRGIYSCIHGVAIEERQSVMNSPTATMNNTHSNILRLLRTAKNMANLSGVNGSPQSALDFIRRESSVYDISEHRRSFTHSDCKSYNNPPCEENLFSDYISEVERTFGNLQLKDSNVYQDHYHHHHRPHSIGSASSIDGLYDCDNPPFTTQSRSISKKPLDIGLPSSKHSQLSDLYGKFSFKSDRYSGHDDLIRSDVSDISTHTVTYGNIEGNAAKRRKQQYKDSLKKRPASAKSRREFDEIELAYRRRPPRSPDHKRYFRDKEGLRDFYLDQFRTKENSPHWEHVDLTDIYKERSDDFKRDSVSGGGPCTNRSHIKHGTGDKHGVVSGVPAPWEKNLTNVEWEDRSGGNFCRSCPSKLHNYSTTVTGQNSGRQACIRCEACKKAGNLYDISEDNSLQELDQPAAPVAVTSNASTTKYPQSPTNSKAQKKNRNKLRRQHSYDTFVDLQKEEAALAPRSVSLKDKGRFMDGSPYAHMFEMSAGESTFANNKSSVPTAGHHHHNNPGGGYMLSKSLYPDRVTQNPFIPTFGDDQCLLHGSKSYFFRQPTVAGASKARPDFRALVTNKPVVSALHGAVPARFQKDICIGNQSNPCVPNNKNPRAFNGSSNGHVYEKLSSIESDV

Q: For `Cc1cnc(OCc2cn(-c3cccc(OC(F)(F)F)c3)nn2)nc1N` [Example 343, 5-Methyl-2-[[1-[3-(trifluoromethoxy)phenyl]triazol-4-yl]methoxy]pyrimidin-4-amine], which IC50 is on record?
A: Its IC50 is 0.04 µM.

Q: `CC(=O)c1cnc(OCc2cn(-c3cccc(OC(F)(F)F)c3)nn2)nc1` [Example 344, 1-[2-[[1-[3-(Trifluoromethoxy)phenyl]triazol-4-yl]methoxy]pyrimidin-5-yl]ethanone] was tested. Which IC50 did it give?
A: The IC50 was 0.062 µM.

Q: With `CC(C)(O)c1cnc(OCc2cn(-c3cccc(OC(F)(F)F)c3)nn2)nc1` [Example 345, 2-[2-[[1-[3-(Trifluoromethoxy)phenyl]triazol-4-yl]methoxy]pyrimidin-5-yl]propan-2-ol] as the molecule, how does the IC50 read?
A: Its IC50 is 0.284 µM.

Q: How did the IC50 turn out when `COCc1ccnc(OCc2cn(-c3cccc(OC(F)(F)F)c3)nn2)n1` [Example 346, 4-(Methoxymethyl)-2-[[1-[3-(trifluoromethoxy)phenyl]triazol-4-yl]methoxy]pyrimidine] was run?
A: The IC50 was 0.202 µM.

Q: With `Cc1ccnc(OCc2cn(-c3cccc(OC(F)(F)F)c3)nn2)n1` [Example 347, 4-Methyl-2-[[1-[3-(trifluoromethoxy)phenyl]triazol-4-yl]methoxy]pyrimidine] as the molecule, how does the IC50 read?
A: The IC50 was 0.137 µM.

Q: How did the IC50 turn out when `Fc1cnc(OCc2cn(-c3cccc(OC(F)(F)F)c3)nn2)nc1` [Example 348, 5-Fluoro-2-[[1-[3-(trifluoromethoxy)phenyl]triazol-4-yl]methoxy]pyrimidine] was run?
A: The IC50 was 0.447 µM.

Q: With `COc1cnc(OCc2cn(-c3cccc(OC(F)(F)F)c3)nn2)nc1` [Example 349, 5-Methoxy-2-[[1-[3-(trifluoromethoxy)phenyl]triazol-4-yl]methoxy]pyrimidine] as the molecule, how does the IC50 read?
A: The IC50 was 0.013 µM.

Q: `FC(F)(F)Oc1cccc(-n2cc(COc3ncc(Cl)cn3)nn2)c1` [Example 350, 5-Chloro-2-[[1-[3-(trifluoromethoxy)phenyl]triazol-4-yl]methoxy]pyrimidine] was tested. Which IC50 did it give?
A: The IC50 was 0.05 µM.

Q: Which IC50 does the source give for `CCc1cnc(OCc2cn(-c3cccc(OC(F)(F)F)c3)nn2)nc1` [Example 351, 5-Ethyl-2-[[1-[3-(trifluoromethoxy)phenyl]triazol-4-yl]methoxy]pyrimidine] here?
A: The IC50 was 0.015 µM.

Q: With `CNc1ccnc(OCc2cn(-c3cccc(OC(F)(F)F)c3)nn2)n1` [Example 352, N-Methyl-2-[[1-[3-(trifluoromethoxy)phenyl]triazol-4-yl]methoxy]pyrimidin-4-amine] as the molecule, how does the IC50 read?
A: Its IC50 is 0.068 µM.

Q: For `Nc1ccnc(OCc2cn(-c3cccc(OC(F)(F)F)c3)nn2)n1` [Example 353, 2-[[1-[3-(Trifluoromethoxy)phenyl]triazol-4-yl]methoxy]pyrimidin-4-amine], which IC50 is on record?
A: The IC50 was 0.525 µM.

Q: With `Cc1cnc(OCc2cn(-c3ccc4c(c3)OC(F)(F)O4)nn2)nc1` [Example 354, 2-[[1-(2,2-Difluoro-1,3-benzodioxol-5-yl)triazol-4-yl]methoxy]-5-methyl-pyrimidine] as the molecule, how does the IC50 read?
A: Its IC50 is 0.073 µM.

Q: For `FC1(F)Oc2ccc(-n3cc(COc4ncccn4)nn3)cc2O1` [Example 355, 2-[[1-(2,2-Difluoro-1,3-benzodioxol-5-yl)triazol-4-yl]methoxy]pyrimidine], which IC50 is on record?
A: Its IC50 is 0.238 µM.

Q: How did the IC50 turn out when `FC1(F)Oc2ccc(-n3cc(COc4ncc(Cl)cn4)nn3)cc2O1` [Example 356, 5-Chloro-2-[[1-(2,2-difluoro-1,3-benzodioxol-5-yl)triazol-4-yl]methoxy]pyrimidine] was run?
A: Its IC50 is 0.185 µM.

Q: For `Cc1nc(OCc2cn(-c3ccc4c(c3)OC(F)(F)O4)nn2)ncc1F` [Example 357, 2-[[1-(2,2-Difluoro-1,3-benzodioxol-5-yl)triazol-4-yl]methoxy]-5-fluoro-4-methyl-pyrimidine], which IC50 is on record?
A: The IC50 was 0.35 µM.

Q: For `Fc1cnc(OCc2cn(-c3ccc4c(c3)OC(F)(F)O4)nn2)nc1` [Example 358, 2-[[1-(2,2-Difluoro-1,3-benzodioxol-5-yl)triazol-4-yl]methoxy]-5-fluoro-pyrimidine], which IC50 is on record?
A: Its IC50 is 0.726 µM.

Q: How did the IC50 turn out when `Cc1cnc(OCc2cn(-c3ccc4c(c3)OC(F)(F)O4)nn2)nc1C` [Example 359, 2-[[1-(2,2-Difluoro-1,3-benzodioxol-5-yl)triazol-4-yl]methoxy]-4,5-dimethyl-pyrimidine] was run?
A: Its IC50 is 0.009 µM.

Q: Which IC50 does the source give for `Cc1cc(C)cc(-n2cc(COc3ncccn3)nn2)c1` [Example 360, 2-[[1-(3,5-Dimethylphenyl)triazol-4-yl]methoxy]pyrimidine] here?
A: Its IC50 is 0.791 µM.

Q: Which IC50 does the source give for `Cc1cc(C)cc(-n2cc(COc3ncc(F)cn3)nn2)c1` [Example 361, 2-[[1-(3,5-Dimethylphenyl)triazol-4-yl]methoxy]-5-fluoro-pyrimidine] here?
A: Its IC50 is 0.587 µM.

Q: `COc1cnc(OCc2cn(-c3cc(C)cc(C)c3)nn2)nc1` [Example 362, 2-[[1-(3,5-Dimethylphenyl)triazol-4-yl]methoxy]-5-methoxy-pyrimidine] was tested. Which IC50 did it give?
A: The IC50 was 0.032 µM.

Q: Which IC50 does the source give for `Cc1cc(C)cc(-n2cc(COc3ncc(Cl)cn3)nn2)c1` [Example 363, 5-Chloro-2-[[1-(3,5-dimethylphenyl)triazol-4-yl]methoxy]pyrimidine] here?
A: The IC50 was 0.118 µM.

Q: How did the IC50 turn out when `Cc1cnc(OCc2cn(-c3cc(C)cc(C)c3)nn2)nc1` [Example 364, 2-[[1-(3,5-Dimethylphenyl)triazol-4-yl]methoxy]-5-methyl-pyrimidine] was run?
A: The IC50 was 0.027 µM.

Q: Which IC50 does the source give for `CCc1cnc(OCc2cn(-c3cc(C)cc(C)c3)nn2)nc1` [Example 365, 2-[[1-(3,5-Dimethylphenyl)triazol-4-yl]methoxy]-5-ethyl-pyrimidine] here?
A: The IC50 was 0.022 µM.

Q: For `Cc1cnc(OCc2cn(-c3ccc4c(c3)CCC4)nn2)nc1` [Example 366, 2-[(1-Indan-5-yltriazol-4-yl)methoxy]-5-methyl-pyrimidine], which IC50 is on record?
A: Its IC50 is 0.02 µM.

Q: For `Clc1cnc(OCc2cn(-c3ccc4c(c3)CCC4)nn2)nc1` [Example 367, 5-Chloro-2-[(1-indan-5-yltriazol-4-yl)methoxy]pyrimidine], which IC50 is on record?
A: Its IC50 is 0.053 µM.

Q: For `COCc1ccnc(OCc2cn(-c3ccc4c(c3)CCC4)nn2)n1` [Example 368, 2-[(1-Indan-5-yltriazol-4-yl)methoxy]-4-(methoxymethyl)pyrimidine], which IC50 is on record?
A: The IC50 was 0.114 µM.

Q: Which IC50 does the source give for `CC(C)(O)c1cnc(OCc2cn(-c3ccc4c(c3)CCC4)nn2)nc1` [Example 369, 2-[2-[(1-Indan-5-yltriazol-4-yl)methoxy]pyrimidin-5-yl]propan-2-ol] here?
A: Its IC50 is 0.175 µM.

Q: Which IC50 does the source give for `FC(F)c1ccnc(OCc2cn(-c3ccc4c(c3)CCC4)nn2)n1` [Example 370, 4-(Difluoromethyl)-2-[(1-indan-5-yltriazol-4-yl)methoxy]pyrimidine] here?
A: The IC50 was 0.397 µM.

Q: Which IC50 does the source give for `Cc1nc(OCc2cn(-c3ccc4c(c3)CCC4)nn2)ncc1Cl` [Example 371, 5-Chloro-2-[(1-indan-5-yltriazol-4-yl)methoxy]-4-methyl-pyrimidine] here?
A: The IC50 was 0.039 µM.

Q: How did the IC50 turn out when `Cc1cnc(OCc2cn(-c3ccc(Cl)c(OC(F)F)c3)nn2)nc1C` [Example 372, 2-[[1-[4-Chloro-3-(difluoromethoxy)phenyl]triazol-4-yl]methoxy]-4,5-dimethyl-pyrimidine] was run?
A: The IC50 was 0.008 µM.

Q: Which IC50 does the source give for `CC(C)c1cnc(OCc2cn(-c3ccc(Cl)c(OC(F)F)c3)nn2)nc1` [Example 373, 2-[[1-[4-Chloro-3-(difluoromethoxy)phenyl]triazol-4-yl]methoxy]-5-isopropyl-pyrimidine] here?
A: The IC50 was 0.01 µM.

Q: For `C[C@@H](Oc1ncccn1)c1cn(-c2ccc(Cl)c(OC(F)F)c2)nn1` [Example 374, 2-[(1R)-1-[1-[4-Chloro-3-(difluoromethoxy)phenyl]triazol-4-yl]ethoxy]pyrimidine], which IC50 is on record?
A: Its IC50 is 0.011 µM.

Q: How did the IC50 turn out when `C[C@@H](Oc1ncc(Cl)cn1)c1cn(-c2ccc(Cl)c(OC(F)F)c2)nn1` [Example 375, 5-Chloro-2-[(1R)-1-[1-[4-chloro-3-(difluoromethoxy)phenyl]triazol-4-yl]ethoxy]pyrimidine] was run?
A: Its IC50 is 0.01 µM.

Q: `Cc1cnc(O[C@H](C)c2cn(-c3ccc(Cl)c(OC(F)F)c3)nn2)nc1` [Example 376, 2-[(1R)-1-[1-[4-Chloro-3-(difluoromethoxy)phenyl]triazol-4-yl]ethoxy]-5-methyl-pyrimidine] was tested. Which IC50 did it give?
A: The IC50 was 0.011 µM.

Q: For `COc1cnc(O[C@H](C)c2cn(-c3ccc(Cl)c(OC(F)F)c3)nn2)nc1` [Example 377, 2-[(1R)-1-[1-[4-Chloro-3-(difluoromethoxy)phenyl]triazol-4-yl]ethoxy]-5-methoxy-pyrimidine], which IC50 is on record?
A: The IC50 was 0.01 µM.

Q: `C[C@H](Oc1ncccn1)c1cn(-c2ccc(Cl)c(OC(F)F)c2)nn1` [Example 378, 2-[(1S)-1-[1-[4-Chloro-3-(difluoromethoxy)phenyl]triazol-4-yl]ethoxy]pyrimidine] was tested. Which IC50 did it give?
A: The IC50 was 2.3 µM.

Q: With `C[C@H](Oc1ncc(Cl)cn1)c1cn(-c2ccc(Cl)c(OC(F)F)c2)nn1` [Example 379, 5-Chloro-2-[(1S)-1-[1-[4-chloro-3-(difluoromethoxy)phenyl]triazol-4-yl]ethoxy]pyrimidine] as the molecule, how does the IC50 read?
A: Its IC50 is 0.575 µM.

Q: With `Cc1cnc(O[C@@H](C)c2cn(-c3ccc(Cl)c(OC(F)F)c3)nn2)nc1` [Example 380, 2-[(1S)-1-[1-[4-Chloro-3-(difluoromethoxy)phenyl]triazol-4-yl]ethoxy]-5-methyl-pyrimidine] as the molecule, how does the IC50 read?
A: The IC50 was 0.237 µM.

Q: `COc1cnc(O[C@@H](C)c2cn(-c3ccc(Cl)c(OC(F)F)c3)nn2)nc1` [Example 381, 2-[(1S)-1-[1-[4-Chloro-3-(difluoromethoxy)phenyl]triazol-4-yl]ethoxy]-5-methoxy-pyrimidine] was tested. Which IC50 did it give?
A: The IC50 was 0.196 µM.

Q: `Nc1ccnc(OCc2cn(-c3ccc(Cl)c(OC(F)F)c3)nn2)n1` [Example 382, 2-((1-(4-chloro-3-(difluoromethoxy)phenyl)-1H-1,2,3-triazol-4-yl)methoxy)pyrimidin-4-amine] was tested. Which IC50 did it give?
A: Its IC50 is 0.021 µM.

Q: With `OCc1ccnc(OCc2cn(-c3ccc(Cl)c(OC(F)F)c3)nn2)n1` [Example 383, [2-[[1-[4-Chloro-3-(difluoromethoxy)phenyl]triazol-4-yl]methoxy]pyrimidin-4-yl]methanol] as the molecule, how does the IC50 read?
A: Its IC50 is 0.008 µM.

Q: `COCc1ccnc(OCc2cn(-c3ccc(Cl)c(OC(F)F)c3)nn2)n1` [Example 384, 2-[[1-[4-Chloro-3-(difluoromethoxy)phenyl]triazol-4-yl]methoxy]-4-(methoxymethyl)pyrimidine] was tested. Which IC50 did it give?
A: The IC50 was 0.018 µM.

Q: With `CC(C)(O)c1cnc(OCc2cn(-c3ccc(Cl)c(OC(F)F)c3)nn2)nc1` [Example 385, 2-[2-[[1-[4-Chloro-3-(difluoromethoxy)phenyl]triazol-4-yl]methoxy]pyrimidin-5-yl]propan-2-ol] as the molecule, how does the IC50 read?
A: Its IC50 is 0.028 µM.
